Key:
Type in all cases: cell-based, human
[1] = tested on: mTOR and phospho-mTOR; assay: Western blot of mTOR and phospho-mTOR after mTOR RNAi; settings: SH-SY5Y and ATXN2-Q22/58 KI cells, 4 days post-transfection
Text: siRNAs. The siRNAs used in this study were: All Star Negative Control siRNA (Qiagen Inc., USA; Cat #1027280), human siATXN2 [Hs_ATXN2_2 (Qiagen Inc., USA; Cat #SI00308196)], human siSTAU1: 5′-CCUAUAACUACAACAUGAGdTdT-3′ (SEQ ID NO: 3), and simTOR: 5′-GAGCCUUGUUGAUCCUUAA-3′ (SEQ ID NO: 4). Staufen1 and mTOR siRNA oligonucleotides were synthesized by Invitrogen Inc., USA. The oligonucleotides were deprotected and the complementary strands were annealed.
(§1) For over-expression of recombinant proteins, SH-SY5Y cells were seeded on 100 mm or 6 well dishes and incubated overnight. The cells were then transfected with plasmid DNAs and harvested 48 hrs post-transfection and processed as two aliquots for protein and RNA analyses. For siRNA experiments, cells were transfected with siRNAs using lipofectamine 2000, and lymphoblastoid B cells (1×10^6) were electroporated with siRNAs using the Neon transfection system (Invitrogen Inc., USA) according to the manufacturer's protocol and seeded on 6 well plates.
(§2) Preparation of protein lysates and western blot analyses. […] Signals were detected by using the Immobilon Western Chemiluminescent HRP Substrate (Millipore Inc., USA; cat #WBKLSO100) according to the manufacturer's protocol. The intensity of proteins was determined by using the ImageJ software analyses system and the relative protein abundances were expressed as ratios to β-actin.

[2] = tested on: Staufen1; assay: Western blot of Staufen1 in SH-SY5Y and ATXN2-Q22/58 knock-in cells; settings: ATXN2-Q22/58 KI cells, RNAi
Protocol: (§3) SH-SY5Y cells were cultured in standard DMEM with 10% FBS and 1X penicillin/streptomycin in 5% CO2. Transfection of STAU1 siRNA or STAU1 ASO was accomplished using Lipofectamine transfection reagent using standard conditions. Cells were harvested 3-5 days post transfection.
(§4) Protein extracts were prepared by suspending cell pellets in SDS-PAGE sample buffer (Laemmli sample buffer) followed by boiling for 5 min. Equal amount of the extracts were subjected to Western blot analysis to determine the steady-state levels of proteins using the indicated antibodies. Protein extracts were resolved by SDS-PAGE and transferred to Hybond P membranes (Amersham Bioscience Inc., USA). After blocking with 5% skim milk in 0.1% Tween 20/PBS, the membranes were incubated with primary antibodies in 5% skim milk in 0.1% Tween 20/PBS for 2 hrs at room temperature or overnight at 4° C. After several washes with 0.1% Tween 20/PBS, the membranes were incubated with the corresponding secondary antibodies conjugated with HRP in 5% skim milk in 0.1% Tween 20/PBS for 2 hrs at room temperature. Following three additional washes with 0.1% Tween 20/PBS, signals were detected by using the Immobilon Western Chemiluminescent HRP Substrate (Millipore Inc., USA; cat #WBKLSO100) according to the manufacturer's protocol. The antibodies used included ATXN2 mAb [(1:3000), BD Biosciences Inc.; cat #611378], rabbit anti-Staufen antibody (Novus biologicals Inc., NBP1-33202), SQSTM1/p62 antibody (Cell signaling, #5114), LC3B Antibody (Novus biologicals Inc., NB100-2220), mTOR antibody (Cell signaling, #2972), Phospho-mTOR (Ser2448) antibody (Cell signaling #2971), β-Actin mAb conjugated with HRP [(1:10,000), Sigma Inc.; cat #A3858]. Secondary antibodies were horse anti-mouse IgG-HRP antibody (Vector laboratories, PI-2000), and goat anti-rabbit IgG-HRP antibody (Vector laboratories, PI-1000).
as §1, §2

[3] = tested on: autophagic pathway proteins (mTOR, P-mTOR, p62, LC3-II); assay: Western blot of autophagic pathway proteins in SH-SY5Y and ATXN2-Q22/58 knock-in cells
Protocol: as §3
as §4, with “The antibodies used included ATXN2 mAb [(1:3000), BD Biosciences Inc.; cat #611378], rabbit anti-Staufen antibody (Novus biologicals Inc., NBP1-33202), SQSTM1/p62 antibody (Cell signaling, #5114), LC3B Antibody (Novus biologicals Inc., NB100-2220), mTOR antibody (Cell signaling, #2972), Phospho-mTOR (Ser2448) antibody (Cell signaling #2971), β-Actin mAb conjugated with HRP [(1:10,000), Sigma Inc.; cat #A3858].” left out
as §1
Preparation of protein lysates and western blot analyses. Cellular extracts were prepared by a single-step lysis method. […] Equal amounts of the extracts were used for western blot analyses. […] Only supernatants were used for western blotting. Protein extracts were resolved by SDS-PAGE and transferred to Hybond P membranes (Amersham Bioscience Inc., USA). After blocking with 5% skim milk in 0.1% Tween 20/PBS, the membranes were processed for immunostaining using corresponding primary and secondary antibodies. Signals were detected by using the Immobilon Western Chemiluminescent HRP Substrate (Millipore Inc., USA; cat #WBKLSO100) according to the manufacturer's protocol. The intensity of proteins was determined by using the ImageJ software analyses system and the relative protein abundances were expressed as ratios to β-actin.

5′-GAGCCUUGUUGAUCCUUAA-3′ (listed as RNA, chemistry not given here; listed as Homo sapiens) [simTOR, mTOR siRNA synthesized by Invitrogen]
mTOR and phospho-mTOR levels [1]: depletion | Staufen1 abundance [2]: reduced Staufen1 | autophagic pathway proteins ([3]; ATXN2-Q22/58 knock-in cells, RNAi transfection): improves autophagy marker proteins | Staufen1 and autophagic pathway protein component levels in control cells ([3]; control SH-SY5Y cells, mTOR RNAi, 4 days post-transfection): without affecting those levels

From patent publication US12409189B2, “STAUFEN1 agents and associated methods” (University of Utah Research Foundation, priority 2016, dated 2025)
